Results on eight compounds are retold here after ChEMBL document CHEMBL1156893, “Structure-activity relationships amongst 4-position quinoline methanol antimalarials that inhibit the growth of drug sensitive and resistant strains of Plasmodium falciparum” (Bioorg Med Chem Lett, 2010).

The experiment relates to Plasmodium berghei. The experiment in a line: Antimalarial activity against Plasmodium berghei infected in ICR mice (Mus musculus) assessed as delay in mortality at 160 mg/kg, perorally for 3 days. Set-up: dose 160 mg/kg. It is filed as functional, organism-based.
Regarding `CC(C)CC(C)NCC(O)c1cc(C(F)(F)F)nc2c(C(F)(F)F)cccc12` (stereo not drawn), the survival time amounted to 2 days.
With `COCCCNCC(O)c1cc(C(F)(F)F)nc2c(C(F)(F)F)cccc12` (stereo not drawn), the survival time was 9 days.
The result for `CC1C(NCC(O)c2cc(C(F)(F)F)nc3c(C(F)(F)F)cccc23)CC2CC1C2(C)C` (stereo not drawn) reads 3 days; that for `CCCCNCC(O)c1cc(C(F)(F)F)nc2c(C(F)(F)F)cccc12` (stereo not drawn), 8 days.
On to `CSCCCNCC(O)c1cc(C(F)(F)F)nc2c(C(F)(F)F)cccc12` (stereo not drawn), for which the survival time was 17 days.
As for `CNCC(O)c1cc(C(F)(F)F)nc2c(C(F)(F)F)cccc12` (stereo not drawn), the survival time worked out at 25 days.
The result for `COCCNCC(O)c1cc(C(F)(F)F)nc2c(C(F)(F)F)cccc12` (stereo not drawn) reads 15 days.
The result for `OC(c1cc(C(F)(F)F)nc2c(C(F)(F)F)cccc12)C1CCCCN1` (racemic) reads 17 days.
